≈ marks a conversion by molar mass, not a printed value. Calls of active or inactive are those of the source. No cut-off for these calls is given here.
Legend:
Fusarium oxysporum [1] = assay: Inhibition of conidial germination of Fusarium oxysporum at 10 ug/ml after 48 hr by microscopy; format: functional
Botrytis cinerea [2] = assay: Inhibition of conidial germination of Botryotinia fuckeliana at 50 ug/ml after 8 days by microscopy; format: functional, organism-based
Botrytis cinerea [3] = assay: Antifungal activity against Botryotinia fuckeliana assessed as growth inhibition at 1 mg/ml after 72 hr by paper disk diffusion method; format: functional; details: read-out: DIZ
Botrytis cinerea [4] = assay: Inhibition of mycelial growth of Botryotinia fuckeliana after […]; format: functional, organism-based
Fusarium oxysporum [5] = assay: Antifungal activity against Fusarium oxysporum assessed as growth inhibition at 1 mg/ml after 72 hr by paper disk diffusion method; format: functional; details: read-out: DIZ
Botrytis cinerea [6] = assay: Inhibition of conidial germination of Botryotinia fuckeliana after 8 days by microscopy; format: functional, organism-based; details: 192 h
Fusarium oxysporum [7] = assay: Inhibition of conidial germination of Fusarium oxysporum at 100 ug/ml after 8 days by microscopy; format: functional, organism-based
Fusarium oxysporum [8] = assay: Inhibition of mycelial growth of Fusarium oxysporum after […]; format: functional, organism-based
Botrytis cinerea [9] = assay: Inhibition of conidial germination of Botryotinia fuckeliana at 10 ug/ml after 48 hr by microscopy; format: functional
Botrytis cinerea [10] = assay: Antifungal activity against Botryotinia fuckeliana after 72 hr by 96-well microbioassay; format: functional
Fusarium oxysporum [11] = assay: Inhibition of conidial germination of Fusarium oxysporum after 8 days by microscopy; format: functional, organism-based; details: 192 h
Fusarium oxysporum [12] = assay: Antifungal activity against Fusarium oxysporum after 72 hr by 96-well microbioassay; format: functional

IC50 (Botrytis cinerea [6]) [µg/mL] | MIC (Botrytis cinerea [10]) [µg/mL] | IC50 (Fusarium oxysporum [11]) [µg/mL] | MIC (Fusarium oxysporum [12]) [µg/mL] | SMILES | inhibition at 10 µg/mL (Fusarium oxysporum [1]) [%] | inhibition (Botrytis cinerea [2]) | zone of inhibition at 1000 µg/mL (Botrytis cinerea [3]) [mm] | IC50 (Botrytis cinerea [4]) [µg/mL] | zone of inhibition at 1000 µg/mL (Fusarium oxysporum [5]) [mm] | inhibition (Fusarium oxysporum [7]) | IC50 (Fusarium oxysporum [8]) [µg/mL] | inhibition at 10 µg/mL (Botrytis cinerea [9]) [%]
7.3 (≈ 17.8 µM) | 25 (≈ 61 µM) | 40.8 (≈ 99.6 µM) | 36 (≈ 87.9 µM) | CCNC(c1ccccc1-c1cn(-c2ccccc2)nc1-c1ccc(C)cc1)C(C)C (stereo unspecified) | 20 | Active | 26 | 6.8 (≈ 16.6 µM) | 23.6 | Active | 17.8 (≈ 43.4 µM) | 85
 | 12 (≈ 13 µM) |  | 15 (≈ 16.2 µM) | C[C@@H]1[C@H](O)[C@@H](C)/C=C/C=C/C=C/C=C/C=C/C=C/C=C/[C@H](O[C@@H]2O[C@H](C)[C@@H](O)[C@H](N)[C@@H]2O)C[C@@H]2O[C@](O)(C[C@@H](O)C[C@@H](O)[C@H](O)CC[C@@H](O)C[C@@H](O)CC(=O)O[C@H]1C)C[C@H](O)[C@H]2C(=O)O [AMPHOTERICIN B] |  |  | 30 |  | 26 |  |  | 

Reference: ChEMBL document CHEMBL3045207, “1-Phenyl-3-toluyl-4-[ortho-1'-(N-ethyl-2'-methylpropylamine)]phenylpyrazole, synthesis and evaluation of the in vitro antifungal activity against Botrytis cinerea and Fusarium oxysporum” (Farmaco, 2004)
